The values that follow come from US10918620B2, “Use of statins for periodontal disease and bone regeneration” (priority 2012, dated 2021).

Assay [1] relates to Human PBMC stimulated with PHA (T cells). The experiment in a line: Proliferation of T cells evaluation (CellTrace Violet, flow cytometry). The conditions noted are these: PHA 25 μg/ml, 4 days; FIG. 2. The class given is cell-based. As to the method: The specific objectives of this assay were to evaluate the degree of cell toxicity (cell viability measured in dead % of T cells) and the level of T cell proliferation under a specific stimulus in the presence of: Human PBMC derived from healthy control donors were stimulated with PHA, 25 μg/ml, in presence or absence of Atorvastatin (AT) in various formulations: irradiated (ATi) or non-irradiated (ATni) Atorvastatin, soluble or toothpaste. […] Later cells were harvested and stained with anti-CD4 antibody conjugated to FITC and the samples were analyzed by flow cytometer Beckman Coulter XL.

The subject of a further assay is periodontal disease. In words: Concurrent cohort study of systemic statin therapy: periodontal clinical parameters (BOP, PISA). The format is in vivo, human. Conditions: patients taking statins (Atorvastatin 20 mg every 24 hours, systemic); 6 months. The method, then:
A concurrent cohort study was perform, with two groups of patients, some exposed to statin therapy and some not exposed to statin therapy. Patient submitted to statin therapy received Atorvastatin 20 mg, every 24 hours, indicated as part of a preventive cardiologic therapy.
The eligible patients were those that meet the following inclusion criteria: a) informed consent, b) over 35 years, c) with at least 14 natural teeth in the mouth (excluding third molars), d) have some degree of periodontal disease.
Measures were taken when starting the study and after 6 months for both groups of patients. The examination included probing depth (PD), clinical attachment level (CAL) and bleeding on probing index (BOP).
Periodontal probing was performed to each tooth at 6 sites (mesiovestibular, mediovestibular, distovestibular, mesiolingual/palatal, mediolingual/palatal and distolingual/palatal). CAL was defined as the distance from the cementoenamel junction to the pocket bottom. […] BI was determined by assigning a “+” sign to the presence of bleeding on probing in vestibular and/or palatal of the examined tooth and with a “−” sign to the absence of bleeding. […]
Periodontal Inflamed Surface Area (PISA) was also calculated using data insertion loss, gingival recession and bleeding on probing. […]

Assay [2] relates to IL-6, IL-10, C-reactive protein (CRP) in GCF. In words: Cohort study of systemic statin therapy: inflammation biomarkers in gingival crevicular fluid by Elisa. The class given is in vivo, human. The text has this:
Measurements at Gingival Crevicular Fluid Level (GCF).
Upon confirmation of periodontal diagnosis, samplings of GCF were taken by standard procedures. These are described below:
Two sites were selected from each quadrant which PD is higher. After isolating the tooth with cotton balls, supra-gingival plaque was removed with a curette without touching the gingival margin. Crevicular site was gently dried with air. The GCF was collected with paper cones. The paper points were inserted into the sulcus/pocket until feeling a medium resistance and were left for 40 seconds. Cones contaminated with saliva or blood were excluded. Later the paper cones were placed in a tube. GCF samples were storage at −80° C.
IL-6, IL-10, and C-reactive protein (CRP) were measured as inflammation biomarkers. Measurements were performed through Elisa test. Measurements were performed at the start of the study and after 6 months for both groups of patients, with and without indication of statins.

Assay [3] relates to release of cytokines and neutrophil adhesion to venous endothelium. The conditions noted are these: pretreatment; patients undergoing coronary artery bypass surgery, bypass, or cardiopulmonary graft; cited from earlier work.
Assay [4] deals with 52 bacteria isolated from subgingival plaque. The conditions noted are these: cited from earlier work.
Assay [5] relates to supragingival bacterial plaque and gingival inflammation. Conditions: clinical results, mouthwash; cited from earlier work.

Structures are written as SMILES.

For the molecule `CC(C)c1c(C(=O)Nc2ccccc2)c(-c2ccccc2)c(-c2ccc(F)cc2)n1CC[C@@H](O)C[C@@H](O)CC(=O)O` [Soluble ATi, Atorvastatin], the “T cell proliferation (immunomodulatory behavior)” value in assay [1] is reported as “reduces immune cell proliferation”.
As to `CC(C)c1c(C(=O)Nc2ccccc2)c(-c2ccccc2)c(-c2ccc(F)cc2)n1CC[C@@H](O)C[C@@H](O)CC(=O)O` [statins, Atorvastatin], in the assay with periodontal disease, the “reduction of area of periodontal inflammation measured by the PISA index” value is 58.66% and the “reduction of bleeding on probing index (BOP)” value is listed as 60.89%. Moreover, the “levels of IL-6 in GCF, average” value in assay [2] (patients consuming statins (Atorvastatin 20 mg every 24 hours), patients without statins 4.8 pg/ml) was 0.47 pg/mL. For the same molecule, the “reduction of IL-6 in GCF” value in assay [2] (patients consuming statins vs patients without statins use) is 90.1%. The “levels of IL-10 in GCF” value in assay [2] (patients taking statins, average in patients not consuming statins 1.23 pg/ml) is on record as “no IL-10 could be detected”. Further, the “reduction of levels of CRP (C-reactive protein) in GCF” value in assay [2] (patients taking systemic statins) is recorded as 93%.
As for `CC(C)c1c(C(=O)Nc2ccccc2)c(-c2ccccc2)c(-c2ccc(F)cc2)n1CC[C@@H](O)C[C@@H](O)CC(=O)O` [atorvastatin], the “release of cytokines and neutrophil adhesion to venous endothelium” value in assay [3] was “significantly reduce the release of cytokines and neutrophil adhesion to venous endothelium”.
For `[H]/N=C(\N/C(=N/[H])NCCCCCCNC(=N)NC(=N)Nc1ccc(Cl)cc1)Nc1ccc(Cl)cc1` [chlorhexidine], in assay [4], the antimicrobial resistance result is “has not been detected” and the “concentration at which all bacteria isolated from patients with periodontitis were inhibited” value is 250 mg/mL. In assay [5], the “decreased levels of gingival inflammation” value is given as 45% and the “decreased levels of supragingival bacterial plaque” value is 55%.
